For experiment [1], the system named is Bemisia tabaci. The experiment in a line: Inhibition of B-type Bemisia tabaci (sweet potato whitefly) oxidase-mediated O-deethylation using 285 uM of 7-ethoxycoumarin as substrate assessed as residual activity after 120 min relative to control.
Experiment [2] can be described thus: Inhibition of B-type Bemisia tabaci (sweet potato whitefly) esterase using 500 uM of 1-naphthyl butyrate as substrate after 120 min.
Experiment [3] has as its system Bemisia tabaci. The experiment in a line: Reversible inhibition of B-type Bemisia tabaci (sweet potato whitefly) esterase using 1-naphthyl butyrate as substrate after 10 to 120 min.
The subject of experiment [4] is Bemisia tabaci. The experiment in a line: Non-competitive inhibition of B-type Bemisia tabaci (sweet potato whitefly) esterase using 1-naphthyl butyrate as substrate after 10 to 120 min.
A short description of experiment [5]: Inhibition of B-type Bemisia tabaci (sweet potato whitefly) esterase using 31.25 uM of 1-naphthyl butyrate as substrate after 120 min.
In experiment [6] the test system is Bemisia tabaci. The experiment in a line: Inhibition of B-type Bemisia tabaci (sweet potato whitefly) oxidase-mediated O-deethylation using 18 uM of 7-ethoxycoumarin as substrate assessed as residual activity after 10 min relative to control.
Experiment [7] concerns Bemisia tabaci. The experiment in a line: Inhibition of B-type Bemisia tabaci (sweet potato whitefly) oxidase-mediated O-deethylation using 285 uM of 7-ethoxycoumarin as substrate assessed as residual activity after 10 min relative to control.
Experiment [8] is described as follows: Inhibition of B-type Bemisia tabaci (sweet potato whitefly) esterase using 500 uM of 1-naphthyl butyrate as substrate after 10 min.
The subject of experiment [9] is Bemisia tabaci. The experiment in a line: Insecticidal activity against drug-resistant Bemisia tabaci GUAMIX (sweet potato whitefly) in cotton plant leaf assessed as mortality after 48 hr in presence of PBO pretreated 5 hr before compound challenge. Type of experiment: functional.
In experiment [10] the test system is Bemisia tabaci. The experiment in a line: Insecticidal activity against drug-susceptible Bemisia tabaci SUD-S (sweet potato whitefly) in cotton plant leaf assessed as mortality after 48 hr in presence of PBO pretreated 5 hr before compound challenge. It counts as functional.
Experiment [11] concerns Bemisia tabaci. The experiment in a line: Insecticidal activity against drug-resistant Bemisia tabaci GUAMIX (sweet potato whitefly) in cotton plant leaf assessed as mortality after 48 hr in presence of EN 16/5-1 pretreated 5 hr before compound challenge. It counts as functional.
Experiment [12] concerns Bemisia tabaci. The experiment in a line: Insecticidal activity against drug-susceptible Bemisia tabaci SUD-S (sweet potato whitefly) in cotton plant leaf assessed as mortality after 48 hr. Type of experiment: functional.
Experiment [13] has as its system Bemisia tabaci. The experiment in a line: Resistant factor, ratio of LC50 for drug-susceptible Bemisia tabaci SUD-S (sweet potato whitefly) to LC50 for drug-resistant Bemisia tabaci GUAMIX (sweet potato whitefly). It counts as functional.
The subject of experiment [14] is Bemisia tabaci. The experiment in a line: Resistant factor, ratio of LC50 for […] (sweet potato whitefly) in presence of PBO. It counts as functional.
The subject of experiment [15] is Bemisia tabaci. The experiment in a line: Insecticidal activity against drug-resistant Bemisia tabaci GUAMIX (sweet potato whitefly) in cotton plant leaf assessed as mortality after 48 hr. Type of experiment: functional.
Experiment [16] concerns Bemisia tabaci. The experiment in a line: Insecticidal activity against drug-susceptible Bemisia tabaci SUD-S (sweet potato whitefly) in cotton plant leaf assessed as mortality after 48 hr in presence of EN 16/5-1 pretreated 5 hr before compound challenge. It counts as functional.
For experiment [17], the system named is Bemisia tabaci. The experiment in a line: Resistant factor, ratio of LC50 for […] (sweet potato whitefly) in presence of EN 16/5-1. Type of experiment: functional.

Structures are written as SMILES. ≈ marks a conversion by molar mass, not a printed value. Calls of active or inactive are those of the source. The calls are words filed in the database; no cut-off is given here.

By IC50 is commonly meant the point on the concentration scale where inhibition reaches its midpoint. Higher therefore signals a need for much substance. The LC50 is the concentration lethal to half of the exposed cells or organisms.

In the case of `CCCCOCCOCCOCc1cc2c(cc1CCC)CCO2`, the values for the Activity with Bemisia tabaci [1], with Bemisia tabaci [6] and in the experiment with Bemisia tabaci [7] were 82%, 42% and 78%, respectively. Besides, the IC50 in experiment [2] is 5.4 µM; in [5] it was 4.8 µM; in experiment [8], 6.5 µM. Moreover, the inhibition entry in the experiment with Bemisia tabaci [3] and with Bemisia tabaci [4] was “Active” each time.
As for `O=[N+]([O-])/N=C1\NCCN1Cc1ccc(Cl)nc1` [IMIDACLOPRID], the LC50 is 32.1 mg/L with Bemisia tabaci [9]; 0.49 mg/L in the experiment on Bemisia tabaci [10]; 847 mg/L with Bemisia tabaci [11]; 1.49 mg/L (≈ 5.83 µM) in the experiment on Bemisia tabaci [12]; > 1000 mg/L in the experiment on Bemisia tabaci [15]; 0.94 mg/L in the experiment with Bemisia tabaci [16]. Further, the RatioLC50 in the experiment with Bemisia tabaci [13] is >670; in the experiment with Bemisia tabaci [14], 65.5; in the experiment on Bemisia tabaci [17] it was 900.
Take `CCCCOCCOCCOCc1cc2c(cc1CCC)OCO2` [PIPERONYL BUTOXIDE]: the values for the Activity in the experiment with Bemisia tabaci [1], with Bemisia tabaci [6] and with Bemisia tabaci [7] were 27%, 16% and 24%, respectively. In addition, the IC50 amounted to 5.1 µM in experiment [2], 5.4 µM in experiment [5] and 4.7 µM in experiment [8]. Also, the inhibition result with Bemisia tabaci [3] and in the experiment on Bemisia tabaci [4] was “Active” throughout.

The values above are taken from ChEMBL document CHEMBL3045497, “An analogue of piperonyl butoxide facilitates the characterisation of metabolic resistance” (Pest Manag Sci, 2009).
